Assays:
[1] = tested on: MEC, Ramos, Raji, 697 and RS4-11 B cell lines; test: Annexin V/PI viability by flow cytometry in B cell lines; format: cell-based, Human; details: 0.6-10 uM FTY720; 24 and 48 hours
Method: (§1) Cells: Blood was obtained from patients with B-cell CLL with informed consent under a protocol approved by the hospital internal review board. All patients examined in this series had immunophenotypically defined CLL as outlined by the modified 96 National Cancer Institute criteria. B-CLL cells were isolated from freshly donated blood using ficoll density gradient centrifugation (Ficoll-Paque Plus, Amershan Biosciences, Piscataway, N.J.). Isolated mononuclear cells were incubated in RPMI 1640 media (Gibco/Invitrogen, Carlsbad, Calif.) supplemented with 10% heat-inactivated fetal bovine serum (FBS, Hyclone Laboratories, Logan, Utah), 2 mM L-glutamine (Invitrogen, Carlsbad, Calif.), and penicillin (100 U/mL)/streptomycin (100 μg/ml) [Sigma-Aldrich, St. Louis] at 37° C. in an atmosphere of 5% CO2. Freshly isolated B-CLL cells were used in all experiments described herein. […]
(§2) Analysis of cell viability and apoptosis: The cell viability was carried out by dual staining with Annexin V conjugated to flourescein-isothyocyanate (FITC) and Propidium iodide (PI) as described previously. Briefly, 1×10^6 cells were stained with Annexin V-FITC (BD Pharmingen) and Propidium iodide (BD Pharmingen) for 15 minutes in dark and analyzed by flow cytometry using a Beckman-Coulter EPICS XL cytometer (Beckman-Coulter, Miami, Fla.). […]

primary MCL cells = test: Annexin V/PI toxicity in primary MCL cells; format: cell-based; details: Homo sapiens, WinNolin sigmoid inhibitory model
Method: (§3) Primary MCL cells were isolated from PBMC (with informed patient consent under a protocol approved by IRB) as described before. All the MCL patients were identified as outlined by the World Health Organization (WHO) classification. Human mantle cell lymphoma patient cell lines (Mino and Jeko) were obtained from Dr. Raymond Lai. Primary cells or MCL cell lines were incubated in RPMI 1640 media, supplemented with 10%-20% heat-inactivated fetal bovine serum, 2 mM L-glutamine and penicillin (100 U/mL)/streptomycin ([…]) at 37° C. in an atmosphere of 5% CO2. FTY720 was synthesized as previously described. Toxicity was determined by flow cytometry using Annexin-V-FITC and Propidium Iodide (PI) staining. Apoptotic cells were identified as Annexin-V+ and/or PI+ cells. Cells excluding both FITC and PI were considered viable. Western Blotting was performed as described previously using indicated antibodies. The PARP (Ab-2) and Caspase 9 antibodies were purchased from Oncogene/Calbiochem/EMD Biosciences (San Diego, Calif.). Cyclin D1, Akt, Actin, Mcl-1, p-ERK, ERK and Bcl-2 were obtained from Santa Cruz biotech (Santa Cruz, Calif.).
(§4) Several therapeutic agents, including fludarabine, chlorambucil, 2-chloro-2-deoxyadenosine and glucocorticoids, induce toxicity in B cell malignancies through activating caspases, the cysteine proteases of CED3/ICE family. […]

Jeko cells = test: Annexin V/PI toxicity in Jeko cells; format: cell-based; details: Homo sapiens, WinNolin sigmoid inhibitory model
Method: as §3, §4

Mino cells = test: Annexin V/PI toxicity in Mino cells; format: cell-based, Human; details: Homo sapiens, WinNolin sigmoid inhibitory model
Method: as §3
Several therapeutic agents, including fludarabine, chlorambucil, 2-chloro-2-deoxyadenosine and glucocorticoids, induce toxicity in B cell malignancies through activating caspases, the cysteine proteases of CED3/ICE family. Inhibition of these caspases results in abrogation of apoptosis mediated by the toxic stimuli. To determine if caspase activation is involved in FTY720-induced cytotoxicity in MCL, we pretreated Mino cells with 150 μM broad spectrum caspase inhibitor z-VAD-fmk. […] Activation of caspases results in cleavage of key cellular proteins including poly-ADP-ribose polymerase (PARP).

[2] = tested on: 697-neo and 697-Bcl-2 cell lines; test: Annexin V/PI viability in 697-neo and 697-Bcl-2 cells; format: cell-based, Human; details: 24 hours
Method: as §1, §2

PARP = test: Western blot of PARP processing in Mino cells; format: cell-based, Human; details: Mino cells 24 hrs post treatment
Method: as §3, §4

Question: Which results are given for `CCCCCCCCc1ccc(CCC(N)(CO)CO)cc1.Cl` [FTY720, 2-Amino-2-[2-(4-octylphenyl)ethyl]propane 1,3-diol hydrochloride]?
Answer: viable cells (Annexin V-/PI-) [1]: dose dependent inhibition of viable cells; IC50 (primary MCL cells): 10.7 µM; IC50 (Jeko cells): 4.46 µM; IC50 (Mino cells): 11.9 µM; cellular cytotoxicity in 697-neo versus 697-Bcl-2 over expressing cell line [2]: comparable levels of cellular cytotoxicity; PARP processing (PARP): PARP processing comparable to the levels seen with Fludarabine
